Laboratory results: patent publication US11958861B2, “Spirocyclic lactams as JAK2 V617F inhibitors” (Incyte Corporation, priority 2021, dated 2024)
Counter-ions that a name gives are not always drawn.

Legend:
[1] = target: T1, pseudo-kinase domain (JH2, amino-acids 536-812) of human Wild Type JAK2 (Homo sapiens, UniProt O60674, F794H/W659A/W777A); test: JAK2 LanthaScreen JH2-WT Binding Assay; conditions: 1 hour at 25° C.
T1 construct: pseudo-kinase domain (JH2, amino-acids 536-812 with 3 surface mutations W659A, W777A, F794H); purchased BPS Bioscience 79463; host or cells: baculovirus expression system
Method: Example B. JAK2 LanthaScreen JH2-WT Binding Assay
(§1) JAK2 JH2-WT binding assay utilizes pseudo-kinase domain (JH2, amino-acids 536-812 with 3 surface mutations W659A, W777A, F794H) of human Wild Type JAK2 expressed as C-terminal His-Avi-tagged, biotinylated protein in a baculovirus expression system (BPS Bioscience, Catalog #79463). The assay was conducted in black 384-well polystyrene plates in a final reaction volume of 20 μL. JAK2 JH2-WT (0.145 nM) was incubated with compounds (100 nL serially diluted in DMSO) in the presence of 50 nM Fluorescent JAK2-JH2 Tracer (MedChem Express Catalog #HY-102055) and 0.25 nM Streptavidin-Tb cryptate (Cisbio Part #610SATLB) in assay buffer (50 mM Tris, pH=7.5, 10 mM MgCl2, 0.01% Brij-35, 0.1% BSA, 1 mM EGTA, 5% Glycerol and 5 mM DTT). Non-specific binding was accessed in the presence of 2 mM ATP. After incubation for 1 hour at 25° C., LanthaScreen signals were read on a PHERAstar FS plate reader (BMG LABTECH). Data was analyzed with IDBS XLfit and GraphPad Prism 5.0 software using a four parameter dose response curve to determine IC50 for each compound.

[2] = target: T2, catalytic domain (JH1, amino acids 826-1132) of human JAK2 (Homo sapiens, UniProt O60674); test: JAK2 LanthaScreen JH1 Binding Assay; conditions: 2 hours at 25° C.
T2 construct: catalytic domain (JH1, amino acids 826-1132) of human JAK2; purchased Carna Biosciences 08-445-20N; host or cells: baculovirus expression system
Method: Example A. JAK2 LanthaScreen JH1 Binding Assay
JAK2 JH1 binding assay utilizes catalytic domain (JH1, amino acids 826-1132) of human JAK2 expressed as N-terminal FLAG-tagged, biotinylated protein in a baculovirus expression system (Carna Biosciences, Product #08-445-20N). The assay was conducted in black 384-well polystyrene plates in a final reaction volume of 20 μL. JAK2 JH1 (1.5 nM) was incubated with compounds (100 nL serially diluted in DMSO) in the presence of 50 nM Fluorescent JAK2-JH1 Tracer and 0.5 nM Streptavidin-Tb cryptate (Cisbio Part #610SATLB) in assay buffer (50 mM Tris, pH=7.5, 10 mM MgCl2, 0.01% Brij-35, 0.1% BSA, 1 mM EGTA, 5% Glycerol and 5 mM DTT). Non-specific binding was accessed in the presence of 2 mM ATP. After incubation for 2 hours at 25° C., LanthaScreen signals were read on a PHERAstar FS plate reader (BMG LABTECH). Data was analyzed with IDBS XLfit and GraphPad Prism 5.0 software using a four parameter dose response curve to determine IC50 for each compound.

[3] = target: T3, catalytic domain (JH1, amino acids 808-1132) of human JAK2 (Homo sapiens, UniProt O60674); test: JAK2 HTRF Enzyme Activity Assay; type: biochemical; conditions: ATP 30 μM, read-out: ENZ 30UMATP
T3 construct: catalytic domain (JH1, amino acids 808-1132) of human JAK2; His (N); purchased BPS Bioscience 40450; host or cells: baculovirus expression system
Method: Example D. JAK2 HTRF Enzyme Activity Assay
JAK2 enzyme activity assays utilize catalytic domain (JH1, amino acids 808-1132) of human JAK2 expressed as N-terminal His-tagged protein in a baculovirus expression system (BPS Bioscience, Catalog #40450). The assays was conducted in black 384-well polystyrene plates in a final reaction volume of 20 μL. JAK2 (0.015 nM) was incubated with compounds (100 nL serially diluted in DMSO) in the presence of ATP (30 μM or 1 mM) and 500 nM Biotin-labeled […] (SEQ ID NO.: 1) peptide (BioSource International, custom synthesis) in assay buffer (50 mM Tris, pH=7.5, 10 mM MgCl2, 0.01% Brij-35, 0.1% BSA, 1 mM EGTA, 5% Glycerol and 5 mM DTT) for 60 minutes at 25° C. The reactions were stopped by the addition of 10 μL of detection buffer (50 mM Tris, pH 7.8, 0.5 mg/mL BSA, 150 mM NaCl), supplemented with EDTA, LANCE Eu-W1024 anti-phosphotyrosine (PY20), (PerkinElmer, Catalog #AD0067) and Streptavidin SureLight APC (PerkinElmer Catalog #CR130-100), for a final concentration of 15 mM, 1.5 nM and 75 nM, respectively. HTRF signals were read after 30 minutes incubation at room temperature on a PHERAstar FS plate reader (BMG LABTECH). Data was analyzed with IDBS XLfit and GraphPad Prism 5.0 software using a four parameter dose response curve to determine IC50 for each compound.

[4] = target: T4, pseudo-kinase domain (JH2, amino-acids 536-812) of human V617F mutant JAK2 (Homo sapiens, UniProt O60674, F794H/V617F/W659A/W777A); test: JAK2 LanthaScreen JH2-V617F Binding Assay; conditions: 1 hour at 25° C.
T4 construct: pseudo-kinase domain (JH2, amino-acids 536-812 with 3 surface mutations W659A, W777A, F794H); purchased BPS Bioscience 79498; host or cells: baculovirus expression system
Method: Example C. JAK2 LanthaScreen JH2-V617F Binding Assay
as §1, with “JH2-V617F” for “JH2-WT”, “V617F mutant” for “Wild Type”, “#79498).” for “#79463).”, “JH2-V617F (0.26” for “JH2-WT (0.145”

T1 sequence (O60674 536-812 W659A/W777A/F794H): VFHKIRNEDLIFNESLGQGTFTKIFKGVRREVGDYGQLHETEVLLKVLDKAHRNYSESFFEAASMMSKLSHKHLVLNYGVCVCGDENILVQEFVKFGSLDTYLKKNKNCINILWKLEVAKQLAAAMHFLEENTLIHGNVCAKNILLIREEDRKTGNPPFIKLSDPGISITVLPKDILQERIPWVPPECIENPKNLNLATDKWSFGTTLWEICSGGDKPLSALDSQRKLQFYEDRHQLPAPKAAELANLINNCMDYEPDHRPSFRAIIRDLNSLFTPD
T4 sequence (O60674 536-812 V617F/W659A/W777A/F794H): as the sequence (O60674 536-812 W659A/W777A/F794H) above, with V82F counted along it
T2 sequence (O60674 826-1132): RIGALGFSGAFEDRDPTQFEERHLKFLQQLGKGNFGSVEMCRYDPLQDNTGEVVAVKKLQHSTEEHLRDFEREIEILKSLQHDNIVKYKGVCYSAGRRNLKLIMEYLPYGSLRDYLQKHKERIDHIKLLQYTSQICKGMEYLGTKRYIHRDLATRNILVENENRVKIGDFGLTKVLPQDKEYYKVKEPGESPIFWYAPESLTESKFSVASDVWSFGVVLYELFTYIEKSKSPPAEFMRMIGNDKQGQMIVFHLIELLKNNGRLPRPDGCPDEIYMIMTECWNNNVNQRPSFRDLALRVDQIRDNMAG
T3 sequence (O60674 808-1132): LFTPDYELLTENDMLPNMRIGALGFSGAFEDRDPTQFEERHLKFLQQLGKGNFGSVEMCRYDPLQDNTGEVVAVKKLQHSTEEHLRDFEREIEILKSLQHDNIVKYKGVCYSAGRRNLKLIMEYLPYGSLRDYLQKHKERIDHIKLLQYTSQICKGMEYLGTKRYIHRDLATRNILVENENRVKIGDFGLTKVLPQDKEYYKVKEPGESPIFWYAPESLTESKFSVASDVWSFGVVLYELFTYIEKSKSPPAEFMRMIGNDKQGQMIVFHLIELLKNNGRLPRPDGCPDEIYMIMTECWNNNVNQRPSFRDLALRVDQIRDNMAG

Structure (SMILES)	IC50 [1]	IC50 [2]	IC50 [3]	IC50 [4]
CCCC(=O)N1CCC2(CC1)CC1(C2)C(=O)N(C)c2cnc3[nH]c(C4=CCC(C(=O)N(C)C)CC4)c(-c4ccc5c(cnn5C)c4)c3c21 (racemic) [Example 63, 4-(1″-Butyryl-6-methyl-1-(1-methyl-1H-indazol-5-yl)-7-oxo-6,7-dihydro-3H-dispiro[dipyrrolo[2,3-b:3′,2′-d]pyridine-8,1′-cyclobutane-3′,4″-piperidin]-2-yl)-N,N-dimethylcyclohex-3-ene-1-carboxamide, trifluoroacetate salt]	≤ 100 nM	> 2500 nM	> 2500 nM	≤ 100 nM
CN1C(=O)C2(CCN(CC3(CC#N)CC3)C2)c2c1cnc1[nH]c(-c3ccc4c(c3)OCC(=O)N4)c(-c3ccc4c(cnn4C)c3)c21 (racemic) [Example 67, 2-(1-((6-Methyl-1-(1-methyl-1H-indazol-5-yl)-7-oxo-2-(3-oxo-3,4-dihydro-2H-benzo[b][1,4]oxazin-7-yl)-6,7-dihydro-3H-spiro[dipyrrolo[2,3-b:3′,2′-d]pyridine-8,3′-pyrrolidin]-1′-yl)methyl)cyclopropyl)acetonitrile, trifluoroacetate salt]	≤ 100 nM	> 2500 nM	> 2500 nM	≤ 100 nM
CN1C(=O)C2(CCN(CC3(CC#N)CC3)C2)c2c1cnc1[nH]c(-c3cnn4cccnc34)c(-c3ccc4c(cnn4C)c3)c21 (racemic) [Example 68, 2-(1-((6-Methyl-1-(1-methyl-1H-indazol-5-yl)-7-oxo-2-(pyrazolo[1,5-a]pyrimidin-3-yl)-6,7-dihydro-3H-spiro[dipyrrolo[2,3-b:3′,2′-d]pyridine-8,3′-pyrrolidin]-1′-yl)methyl)cyclopropyl)acetonitrile, trifluoroacetate salt]	≤ 100 nM	> 2500 nM	> 2500 nM	≤ 100 nM
CN1C(=O)C2(CCN(CC3(CC#N)CC3)C2)c2c1cnc1[nH]c(-c3cnn(Cc4ccc(C#N)cc4)c3)c(-c3ccc4c(cnn4C)c3)c21 (racemic) [Example 69, 4-((4-(1′-((1-(Cyanomethyl)cyclopropyl)methyl)-6-methyl-1-(1-methyl-1H-indazol-5-yl)-7-oxo-6,7-dihydro-3H-spiro[dipyrrolo[2,3-b:3′,2′-d]pyridine-8,3′-pyrrolidin]-2-yl)-1H-pyrazol-1-yl)methyl)benzonitrile, trifluoroacetate salt]	≤ 100 nM	500 to 1250 nM	500 to 1250 nM	≤ 100 nM
CN1C(=O)C2(CCN(CC3(CC#N)CC4(CCC4)C3)C2)c2c1cnc1[nH]c(-c3cnn(C)c3)c(-c3ccc4c(cnn4C)c3)c21 (racemic) [Example 70, 2-(2-((6-Methyl-1-(1-methyl-1H-indazol-5-yl)-2-(1-methyl-1H-pyrazol-4-yl)-7-oxo-6,7-dihydro-3H-spiro[dipyrrolo[2,3-b:3′,2′-d]pyridine-8,3′-pyrrolidin]-1′-yl)methyl)spiro[3.3]heptan-2-yl)acetonitrile]	≤ 100 nM	> 2500 nM	> 2500 nM	≤ 100 nM
CN1C(=O)C2(CCN(S(=O)(=O)C3(CC#N)CC3)C2)c2c1cnc1[nH]c(-c3cnn(C)c3)c(-c3ccc4c(cnn4C)c3)c21 (racemic) [Example 71, 2-(1-((6-Methyl-1-(1-methyl-1H-indazol-5-yl)-2-(1-methyl-1H-pyrazol-4-yl)-7-oxo-6,7-dihydro-3H-spiro[dipyrrolo[2,3-b:3′,2′-d]pyridine-8,3′-pyrrolidin]-1′-yl)sulfonyl)cyclopropyl)acetonitrile, trifluoroacetate salt]	≤ 100 nM	1250 to 2500 nM	1250 to 2500 nM	≤ 100 nM
